From patent US20240109865A1, “INDAZOLE COMPOUNDS AS KINASE INHIBITORS” (TYRA BIOSCIENCES, INC., priority 2020, published 2024)

How the values were obtained:
Test in all cases: Kinase assay, binding constants (Kd), kinase-tagged T7 phage, qPCR
FGFR1 = FGFR1 (Homo sapiens (Human), UniProt P11362)
Method in brief: (§1)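 Competition binding: T7 phage-tagged kinase + biotin-ligand beads + compound (11 pts, 3-fold, 0.9% DMSO). Elution 30 min RT with free ligand; qPCR quantitation. Kd via Hill fit, slope −1.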

FGFR2 = FGFR2 (Homo sapiens (Human), UniProt P21802)
Method in brief: as §1

FGFR3 (V555M) = FGFR3 (V555M) (Homo sapiens (Human), UniProt P22607, V555M); conditions: V555M mutant
Method in brief: as §1

FGFR3 = FGFR3 (Homo sapiens (Human), UniProt P22607)
Method in brief: as §1

FGFR4 = FGFR4 (Homo sapiens (Human), UniProt P22455)
Method in brief: as §1

Chain of FGFR1 (P11362 22-822): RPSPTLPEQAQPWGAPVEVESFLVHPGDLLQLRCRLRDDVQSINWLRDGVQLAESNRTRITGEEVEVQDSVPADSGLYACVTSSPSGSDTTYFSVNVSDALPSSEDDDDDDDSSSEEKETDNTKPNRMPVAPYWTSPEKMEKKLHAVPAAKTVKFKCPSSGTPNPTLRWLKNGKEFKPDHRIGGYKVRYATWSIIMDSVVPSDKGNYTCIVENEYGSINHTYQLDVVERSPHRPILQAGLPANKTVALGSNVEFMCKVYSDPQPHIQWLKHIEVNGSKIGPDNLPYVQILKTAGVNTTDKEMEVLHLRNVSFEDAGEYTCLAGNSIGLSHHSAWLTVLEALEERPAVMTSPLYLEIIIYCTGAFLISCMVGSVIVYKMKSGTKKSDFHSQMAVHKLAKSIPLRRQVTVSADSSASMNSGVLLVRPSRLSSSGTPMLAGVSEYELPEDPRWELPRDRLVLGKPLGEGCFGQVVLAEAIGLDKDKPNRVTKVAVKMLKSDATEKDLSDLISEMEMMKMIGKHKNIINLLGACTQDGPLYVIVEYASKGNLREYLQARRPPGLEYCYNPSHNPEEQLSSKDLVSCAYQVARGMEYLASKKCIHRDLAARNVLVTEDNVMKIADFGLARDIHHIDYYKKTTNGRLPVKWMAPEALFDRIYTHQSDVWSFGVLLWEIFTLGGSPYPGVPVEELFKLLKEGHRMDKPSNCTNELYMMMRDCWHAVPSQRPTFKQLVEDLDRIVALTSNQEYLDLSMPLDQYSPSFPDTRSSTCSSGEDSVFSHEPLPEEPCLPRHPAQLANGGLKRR
Chain of FGFR3 (V555M) (P22607 23-806 V555M): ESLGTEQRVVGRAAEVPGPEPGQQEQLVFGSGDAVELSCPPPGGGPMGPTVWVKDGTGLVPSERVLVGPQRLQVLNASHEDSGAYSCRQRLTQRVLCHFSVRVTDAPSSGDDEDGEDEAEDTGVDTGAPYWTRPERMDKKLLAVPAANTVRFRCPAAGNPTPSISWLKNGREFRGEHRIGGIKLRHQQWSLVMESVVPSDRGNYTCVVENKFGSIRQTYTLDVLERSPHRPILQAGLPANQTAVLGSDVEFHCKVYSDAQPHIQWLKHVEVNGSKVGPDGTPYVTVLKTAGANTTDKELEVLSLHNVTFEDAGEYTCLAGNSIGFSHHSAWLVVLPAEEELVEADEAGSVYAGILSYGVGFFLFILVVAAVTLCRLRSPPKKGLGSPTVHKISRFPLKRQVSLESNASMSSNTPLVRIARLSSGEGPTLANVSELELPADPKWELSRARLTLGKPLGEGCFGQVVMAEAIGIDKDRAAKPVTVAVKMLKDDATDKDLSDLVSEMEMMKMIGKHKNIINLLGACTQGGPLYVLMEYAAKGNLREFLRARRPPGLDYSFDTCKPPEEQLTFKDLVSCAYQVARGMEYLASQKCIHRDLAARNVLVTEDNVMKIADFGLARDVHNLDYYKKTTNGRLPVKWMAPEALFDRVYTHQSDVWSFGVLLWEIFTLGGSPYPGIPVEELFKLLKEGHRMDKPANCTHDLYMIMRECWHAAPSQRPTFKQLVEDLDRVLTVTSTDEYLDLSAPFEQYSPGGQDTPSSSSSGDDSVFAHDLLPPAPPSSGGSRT
Chain of FGFR3 (P22607 23-806): as the sequence (P22607 23-806 V555M) above, with M533V counted along it
Chain of FGFR4 (P22455 22-802): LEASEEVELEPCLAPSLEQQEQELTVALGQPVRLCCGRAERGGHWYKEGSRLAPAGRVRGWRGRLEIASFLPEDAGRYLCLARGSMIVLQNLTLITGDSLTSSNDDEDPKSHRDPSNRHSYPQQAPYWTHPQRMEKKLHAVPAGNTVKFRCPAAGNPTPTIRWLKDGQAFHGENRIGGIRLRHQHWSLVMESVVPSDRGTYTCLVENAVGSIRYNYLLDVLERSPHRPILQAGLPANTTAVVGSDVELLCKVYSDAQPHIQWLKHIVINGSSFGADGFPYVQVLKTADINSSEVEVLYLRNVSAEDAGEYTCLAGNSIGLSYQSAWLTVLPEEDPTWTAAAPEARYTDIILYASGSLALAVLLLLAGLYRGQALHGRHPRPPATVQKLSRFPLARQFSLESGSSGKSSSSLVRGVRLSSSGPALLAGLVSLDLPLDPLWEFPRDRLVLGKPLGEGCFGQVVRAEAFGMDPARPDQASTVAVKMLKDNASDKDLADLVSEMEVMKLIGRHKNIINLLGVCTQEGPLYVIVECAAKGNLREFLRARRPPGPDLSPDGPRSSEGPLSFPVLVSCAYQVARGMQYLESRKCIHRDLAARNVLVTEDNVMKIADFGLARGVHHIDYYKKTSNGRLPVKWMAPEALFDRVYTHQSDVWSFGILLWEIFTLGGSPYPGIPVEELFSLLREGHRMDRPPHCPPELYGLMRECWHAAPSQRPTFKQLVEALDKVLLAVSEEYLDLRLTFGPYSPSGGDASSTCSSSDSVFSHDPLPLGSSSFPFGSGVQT
Chain of FGFR2 (P21802 22-821): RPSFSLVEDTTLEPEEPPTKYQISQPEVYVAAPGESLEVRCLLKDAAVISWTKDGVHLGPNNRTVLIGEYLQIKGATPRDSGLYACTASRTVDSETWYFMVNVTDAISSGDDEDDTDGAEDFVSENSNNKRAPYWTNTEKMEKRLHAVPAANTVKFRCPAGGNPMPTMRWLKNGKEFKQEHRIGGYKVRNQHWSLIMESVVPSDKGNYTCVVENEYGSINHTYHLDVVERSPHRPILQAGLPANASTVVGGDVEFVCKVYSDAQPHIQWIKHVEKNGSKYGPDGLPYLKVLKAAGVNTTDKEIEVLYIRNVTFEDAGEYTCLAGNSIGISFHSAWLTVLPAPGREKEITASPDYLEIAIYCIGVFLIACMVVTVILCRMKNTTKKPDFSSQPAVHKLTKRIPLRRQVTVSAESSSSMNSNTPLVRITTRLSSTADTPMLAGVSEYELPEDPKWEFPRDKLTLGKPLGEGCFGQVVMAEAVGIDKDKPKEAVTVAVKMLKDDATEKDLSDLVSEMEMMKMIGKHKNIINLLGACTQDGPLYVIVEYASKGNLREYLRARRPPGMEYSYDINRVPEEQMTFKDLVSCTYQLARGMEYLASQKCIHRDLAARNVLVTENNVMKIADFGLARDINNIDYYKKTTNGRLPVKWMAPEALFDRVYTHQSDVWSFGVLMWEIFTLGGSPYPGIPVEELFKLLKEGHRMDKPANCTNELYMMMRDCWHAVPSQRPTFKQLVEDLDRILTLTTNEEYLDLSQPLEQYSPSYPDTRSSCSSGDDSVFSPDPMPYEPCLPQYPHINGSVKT

SMILES | Kd (FGFR1) | Kd (FGFR2) | Kd (FGFR3 (V555M)) | Kd (FGFR3) | Kd (FGFR4)
C[C@@H](Oc1ccc2[nH]nc(-c3ccc(N4CC(C(F)F)C4)nc3)c2c1)c1c(Cl)cncc1Cl [Example 252, (R)-5-(1-(3,5-dichloropyridin-4-yl)ethoxy)-3-(6-(3-(difluoromethyl)azetidin-1-yl)pyridin-3-yl)-1H-indazole] | 20 to 100 nM | 20 to 100 nM | 1 to 20 nM | 1 to 20 nM | 1 to 20 nM
C[C@@H](Oc1ccc2[nH]nc(-c3ccc(N4CC(C#N)C4)nc3)c2c1)c1c(Cl)cncc1Cl [Example 253, (R)-1-(5-(5-(1-(3,5-dichloropyridin-4-yl)ethoxy)-1H-indazol-3-yl)pyridin-2-yl)azetidine-3-carbonitrile] | 1 to 20 nM | 1 to 20 nM | 1 to 20 nM | 1 to 20 nM | 1 to 20 nM
Cc1cc2[nH]nc(-c3cnc(N4CC5(C4)CN(S(C)(=O)=O)C5)c(F)c3)c2cc1O[C@@H](C)c1c(Cl)cnnc1Cl [Example 254, (S)-5-(1-(3,5-dichloropyridazin-4-yl)ethoxy)-3-(5-fluoro-6-(6-(methylsulfonyl)-2,6-diazaspiro[3.3]heptan-2-yl)pyridin-3-yl)-6-methyl-1H-indazole] | > 300 nM | 100 to 300 nM | 1 to 20 nM | 20 to 100 nM | > 300 nM
C[C@@H](Oc1cc2c(-c3ccc(N4CC5(C4)CN(S(C)(=O)=O)C5)nc3)n[nH]c2cc1F)c1c(Cl)cncc1Cl [Example 255, (R)-5-(1-(3,5-dichloropyridin-4-yl)ethoxy)-6-fluoro-3-(6-(6-(methylsulfonyl)-2,6-diazaspiro[3.3]heptan-2-yl)pyridin-3-yl)-1H-indazole] | 1 to 20 nM | 1 to 20 nM | 1 to 20 nM | 1 to 20 nM | 1 to 20 nM
C[C@@H](Oc1cc2c(-c3cnc(N4CC5(C4)CN(S(C)(=O)=O)C5)c(F)c3)n[nH]c2cc1F)c1c(Cl)cncc1Cl [Example 256, 5-[(1R)-1-(3,5-dichloro-4-pyridyl)ethoxy]-6-fluoro-3-[5-fluoro-6-(2-methylsulfonyl-2,6-diazaspiro[3.3]heptan-6-yl)-3-pyridyl]-1H-indazole] | 1 to 20 nM | 1 to 20 nM | 1 to 20 nM | 1 to 20 nM | 1 to 20 nM
C[C@@H](Oc1ccc2[nH]nc(-c3ccc(N4CC(C)(N)C4)nc3)c2c1)c1c(Cl)cncc1Cl [Example 257, (R)-1-(5-(5-(1-(3,5-dichloropyridin-4-yl)ethoxy)-1H-indazol-3-yl)pyridin-2-yl)-3-methylazetidin-3-amine] | 1 to 20 nM | 1 to 20 nM | 1 to 20 nM | 1 to 20 nM | 1 to 20 nM
C[C@@H](Oc1cc2c(-c3cnc(N4CC5(C4)CN(S(C)(=O)=O)C5)c(F)c3)n[nH]c2cc1F)c1c(Cl)cnnc1Cl [Example 258, (R)-5-(1-(3,5-dichloropyridazin-4-yl)ethoxy)-6-fluoro-3-(5-fluoro-6-(6-(methylsulfonyl)-2,6-diazaspiro[3.3]heptan-2-yl)pyridin-3-yl)-1H-indazole] | 1 to 20 nM | 1 to 20 nM | 1 to 20 nM | 1 to 20 nM | 1 to 20 nM
Cc1cc2[nH]nc(-c3cnc(N4CC5(C4)CN(S(C)(=O)=O)C5)c(F)c3)c2cc1O[C@H](C)c1c(Cl)cnnc1Cl [Example 259, (R)-5-(1-(3,5-dichloropyridazin-4-yl)ethoxy)-3-(5-fluoro-6-(6-(methylsulfonyl)-2,6-diazaspiro[3.3]heptan-2-yl)pyridin-3-yl)-6-methyl-1H-indazole] | 1 to 20 nM | 1 to 20 nM | 1 to 20 nM | 1 to 20 nM | 1 to 20 nM
C[C@@H](Oc1cc2c(-c3ccc(N4CC5(C4)CN(S(C)(=O)=O)C5)nc3)n[nH]c2cc1Cl)c1c(Cl)cncc1Cl [Example 260, (R)-6-chloro-5-(1-(3,5-dichloropyridin-4-yl)ethoxy)-3-(6-(6-(methylsulfonyl)-2,6-diazaspiro[3.3]heptan-2-yl)pyridin-3-yl)-1H-indazole] | 1 to 20 nM | 1 to 20 nM | 1 to 20 nM | 1 to 20 nM | 1 to 20 nM

The remaining lines, values ahead:

Kd (FGFR1) | Kd (FGFR2) | Kd (FGFR3 (V555M)) | Kd (FGFR3) | Kd (FGFR4) | SMILES
1 to 20 nM | 1 to 20 nM | 1 to 20 nM | 1 to 20 nM | 1 to 20 nM | COc1cc2[nH]nc(-c3ccc(N4CC5(C4)CN(S(C)(=O)=O)C5)nc3)c2cc1O[C@H](C)c1c(Cl)cnnc1Cl [Example 261, (R)-5-(1-(3,5-dichloropyridazin-4-yl)ethoxy)-6-methoxy-3-(6-(6-(methylsulfonyl)-2,6-diazaspiro[3.3]heptan-2-yl)pyridin-3-yl)-1H-indazole]
1 to 20 nM | 1 to 20 nM | 1 to 20 nM | 1 to 20 nM | 1 to 20 nM | C[C@@H](Oc1cc2c(-c3ccc(N4CC5(C4)CN(S(C)(=O)=O)C5)nc3)n[nH]c2cc1F)c1c(Cl)cnnc1Cl [Example 262, (R)-5-(1-(3,5-dichloropyridazin-4-yl)ethoxy)-6-fluoro-3-(6-(6-(methylsulfonyl)-2,6-diazaspiro[3.3]heptan-2-yl)pyridin-3-yl)-1H-indazole]
1 to 20 nM | 1 to 20 nM | 1 to 20 nM | 1 to 20 nM | 1 to 20 nM | C[C@@H](Oc1cc2c(-c3ccc(N4CC5(C4)CN(S(C)(=O)=O)C5)nc3)n[nH]c2cc1Cl)c1c(Cl)cnnc1Cl [Example 263, (R)-6-chloro-5-(1-(3,5-dichloropyridazin-4-yl)ethoxy)-3-(6-(6-(methylsulfonyl)-2,6-diazaspiro[3.3]heptan-2-yl)pyridin-3-yl)-1H-indazole]
1 to 20 nM | 1 to 20 nM | 1 to 20 nM | 1 to 20 nM | 1 to 20 nM | C[C@@H](Oc1cc2c(-c3cnc(N4CC5(C4)CN(S(C)(=O)=O)C5)c(F)c3)n[nH]c2cc1Cl)c1c(Cl)cnnc1Cl [Example 264, (R)-6-chloro-5-(1-(3,5-dichloropyridazin-4-yl)ethoxy)-3-(5-fluoro-6-(6-(methylsulfonyl)-2,6-diazaspiro[3.3]heptan-2-yl)pyridin-3-yl)-1H-indazole]
1 to 20 nM | 1 to 20 nM | 1 to 20 nM | 1 to 20 nM | 1 to 20 nM | C[C@@H](Oc1ccc2[nH]nc(-c3cnc(N4CC(C)(N)C4)c(F)c3)c2c1)c1c(Cl)cncc1Cl [Example 265, (R)-1-(5-(5-(1-(3,5-dichloropyridin-4-yl)ethoxy)-1H-indazol-3-yl)-3-fluoropyridin-2-yl)-3-methylazetidin-3-amine]
1 to 20 nM | 1 to 20 nM | 1 to 20 nM | 1 to 20 nM | 1 to 20 nM | Cc1ncc(Cl)c([C@@H](C)Oc2cc3c(-c4ccc(N5CC6(C5)CN(S(C)(=O)=O)C6)nc4)n[nH]c3cc2F)c1Cl [Example 266, 5-[(1R)-1-(3,5-dichloro-2-methyl-4-pyridyl)ethoxy]-6-fluoro-3-[6-(2-methylsulfonyl-2,6-diazaspiro[3.3]heptan-6-yl)-3-pyridyl]-1H-indazole]
20 to 100 nM | 20 to 100 nM | 1 to 20 nM | 1 to 20 nM | 1 to 20 nM | COc1cc2[nH]nc(-c3cnc(N4CC[C@H]4C)c(F)c3)c2cc1O[C@H](C)c1c(Cl)cncc1Cl [Example 267, 5-((R)-1-(3,5-dichloropyridin-4-yl)ethoxy)-3-(5-fluoro-6-((R)-2-methylazetidin-1-yl)pyridin-3-yl)-6-methoxy-1H-indazole]
